# In patent US9062071B2, “Substituted piperidines as HDM2 inhibitors” (Merck Sharp & Dohme Corp, priority 2011, dated 2015):
# Target: HDM2 protein (Homo sapiens, UniProt Q00987)
# Experiment: fluorescence polarization screening assay (FP IC50)
# Assay type: binding
# Conditions: class symbols
# Protocol: The compounds were evaluated to determine activity at the HDM2 protein by known methods such as the fluorescence polarization screening assay that measures the inhibitory concentration that achieves 50% of maximal activity (FP IC50) and the dissociation constant for inhibitor binding (FP Ki). [Zhang et al., J. Analytical Biochemistry 331: 138-146 (2004)].
# HDM2 protein, sequence (Q00987 whole entry): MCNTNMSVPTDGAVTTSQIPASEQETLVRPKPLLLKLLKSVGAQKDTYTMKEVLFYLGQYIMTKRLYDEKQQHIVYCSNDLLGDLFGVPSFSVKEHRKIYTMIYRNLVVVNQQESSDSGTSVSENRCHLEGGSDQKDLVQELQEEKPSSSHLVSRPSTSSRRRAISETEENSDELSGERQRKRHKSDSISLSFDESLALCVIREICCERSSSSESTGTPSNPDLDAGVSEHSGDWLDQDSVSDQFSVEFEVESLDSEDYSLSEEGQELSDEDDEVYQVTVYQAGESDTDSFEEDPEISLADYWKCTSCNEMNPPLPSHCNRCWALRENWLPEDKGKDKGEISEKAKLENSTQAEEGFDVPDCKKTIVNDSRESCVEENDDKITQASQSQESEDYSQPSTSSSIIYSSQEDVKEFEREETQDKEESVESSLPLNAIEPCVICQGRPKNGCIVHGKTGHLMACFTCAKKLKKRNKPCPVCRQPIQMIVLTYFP
row,IC50 [nM],SMILES
1,1 to 100,"CCC[C@H]1N(C(=O)c2ncccc2C(F)(F)F)CCC[C@@]1(Oc1csc(C(F)(F)F)c1)C(=O)N1CCc2cc(Cl)ccc2C1CC(=O)N1CCC(O)CC1 (stereo partly drawn) [Compound A82, 1-[(6-chloro-2-{[(2R,3S)-2-propyl-1-{[3-(trifluoromethyl)pyridin-2-yl]carbonyl}-3-{[5-(trifluoromethyl)thiophen-3-yl]oxy}piperidin-3-yl]carbonyl}-1,2,3,4-tetrahydroisoquinolin-1-yl)acetyl]piperidin-4-ol]"
2,1 to 100,"CCC[C@H]1N(C(=O)c2ncccc2C(F)(F)F)CCC[C@@]1(Oc1csc(C(F)(F)F)c1)C(=O)N1Cc2cc(F)ccc2C[C@H]1CCC(=O)O [Compound A147, 3-[(3R)-7-fluoro-2-{[(2R,3S)-2-propyl-1-{[3-(trifluoromethyl)pyridin-2-yl]carbonyl}-3-{[5-(trifluoromethyl)thiophen-3-yl]oxy}piperidin-3-yl]carbonyl}-1,2,3,4-tetrahydroisoquinolin-3-yl]propanoic acid]"
3,1 to 100,"CCC[C@H]1N(C(=O)c2ncccc2C(F)(F)F)CCC[C@@]1(Oc1csc(C(F)(F)F)c1)C(=O)N1CCc2cc(F)ccc2C1CCC(=O)O (stereo partly drawn) [Compound A39, 3-(6-fluoro-2-{[(2R,3S)-2-propyl-1-{[3-(trifluoromethyl)pyridin-2-yl]carbonyl}-3-{[5-(trifluoromethyl)thiophen-3-yl]oxy}piperidin-3-yl]carbonyl}-1,2,3,4-tetrahydroisoquinolin-1-yl)propanoic acid]"
4,1 to 100,"CCC[C@H]1N(C(=O)c2ncccc2C(F)(F)F)CCC[C@@]1(Oc1csc(C(F)(F)F)c1)C(=O)N1CCc2cc(F)ccc2C1C(=O)N1CCN(CCO)CC1 (stereo partly drawn) [Compound A93, 2-{4-[(6-fluoro-2-{[(2R,3S)-2-propyl-1-{[3-(trifluoromethyl)pyridin-2-yl]carbonyl}-3-{[5-(trifluoromethyl)thiophen-3-yl]oxy}piperidin-3-yl]carbonyl}-1,2,3,4-tetrahydroisoquinolin-1-yl)carbonyl]piperazin-1-yl}ethanol]"

# Further lines, the molecule ahead of its results:
row,SMILES,IC50 [nM]
1,"CC(C)(C(=O)O)C1CCN(CC[C@H]2N(C(=O)c3ncccc3C(F)(F)F)CCC[C@@]2(Oc2csc(C(F)(F)F)c2)C(=O)N2CCc3cc(Cl)ccc3C2)CC1 [Compound A119, 2-(1-{2-[(2R,3S)-3-[(6-chloro-3,4-dihydroisoquinolin-2(1H)-yl)carbonyl]-1-{[3-(trifluoromethyl)pyridin-2-yl]carbonyl}-3-{[5-(trifluoromethyl)thiophen-3-yl]oxy}piperidin-2-yl]ethyl}piperidin-4-yl)-2-methylpropanoic acid]",1 to 100
2,"CCC[C@H]1N(C(=O)c2ncccc2C(F)(F)F)CCC[C@@]1(Oc1csc(C(F)(F)F)c1)C(=O)N1CCc2sc(Cl)cc2C1CCC(N)=O (stereo partly drawn) [Compound A24, 3-(2-chloro-5-{[(2R,3S)-2-propyl-1-{[3-(trifluoromethyl)pyridin-2-yl]carbonyl}-3-{[5-(trifluoromethyl)thiophen-3-yl]oxy}piperidin-3-yl]carbonyl}-4,5,6,7-tetrahydrothieno[3,2-c]pyridin-4-yl]propanamide]",101 to 20000
3,"CCC[C@H]1N(C(=O)c2ncccc2C(F)(F)F)CCC[C@@]1(Oc1csc(C(F)(F)F)c1)C(=O)N1CCc2cc(Cl)ccc2C1CN1CCOCC1 (stereo partly drawn) [Compound A12, 6-chloro-1-(morpholin-4-ylmethyl)-2-{[(2R,3S)-2-propyl-1-{[3-(trifluoromethyl)pyridin-2-yl]carbonyl}-3-{[5-(trifluoromethyl)thiophen-3-yl]oxy}piperidin-3-yl]carbonyl}-1,2,3,4-tetrahydroisoquinoline]",1 to 100
4,"CCC[C@H]1N(C(=O)c2ncccc2C(F)(F)F)CCC[C@@]1(Oc1csc(C(F)(F)F)c1)C(=O)N1CCc2cc(Br)ccc2C1 [Compound A50, 6-bromo-2-{[(2R,3S)-2-propyl-1-{[3-(trifluoromethyl)pyridin-2-yl]carbonyl}-3-{[5-(trifluoromethyl)thiophen-3-yl]oxy}piperidin-3-yl]carbonyl}-1,2,3,4-tetrahydroisoquinoline]",1 to 100
5,"CCC[C@H]1N(C(=O)c2ncccc2C(F)(F)F)CCC[C@@]1(Oc1csc(C(F)(F)F)c1)C(=O)N1Cc2ccc(Cl)cc2C[C@@H]1C(=O)N1CCC[C@@H](O)C1 [Compound A170, (3R)-1-{[(3R)-6-chloro-2-{[(2R,3S)-2-propyl-1-{[3-(trifluoromethyl)pyridin-2-yl]carbonyl}-3-{[5-(trifluoromethyl)thiophen-3-yl]oxy}piperidin-3-yl]carbonyl}-1,2,3,4-tetrahydroisoquinolin-3-yl]carbonyl}piperidin-3-ol]",1 to 100
6,"CCC[C@H]1N(C(=O)c2ncccc2C(F)(F)F)CCC[C@@]1(Oc1csc(C(F)(F)F)c1)C(=O)N1CCc2cc(Cl)sc2C1C(=O)O (stereo partly drawn) [Compound A19, 2-chloro-6-{[(2R,3S)-2-propyl-1-{[3-(trifluoromethyl)pyridin-2-yl]carbonyl}-3-{[5-(trifluoromethyl)thiophen-3-yl]oxy}piperidin-3-yl]carbonyl}-4,5,6,7-tetrahydrothieno[2,3-c]pyridine-7-carboxylic acid]",1 to 100
7,"CCC[C@H]1N(C(=O)c2ncccc2C(F)(F)F)CCC[C@@]1(Oc1csc(C(F)(F)F)c1)C(=O)N1CCc2cc(Cl)ccc2C1CC(=O)N1CCNC(=O)C1 (stereo partly drawn) [Compound A81, 4-[(6-chloro-2-{[(2R,3S)-2-propyl-1-{[3-(trifluoromethyl)pyridin-2-yl]carbonyl}-3-{[5-(trifluoromethyl)thiophen-3-yl]oxy}piperidin-3-yl]carbonyl}-1,2,3,4-tetrahydroisoquinolin-1-yl)acetyl]piperazin-2-one]",1 to 100
